Patent US7462362B2, “Antifungal nail coat and method of use” (NexMed Holdings, Inc., priority 2003, dated 2008)
Where a name gives a salt, the structure may show the parent alone.

How the values were obtained:
[1] = system: T. mentagrophytes, (ATCC 24953); experiment: Modified NCCLS M38-A broth microdilution MIC assay; format: cell-based, Trichophyton mentagrophytes
Excerpt: The broth microdilution method was a modification of a NCCLS M38-A standard method for the susceptibility testing of conidium-forming filamentous fungi of the National Committee for Clinical Laboratory Standards (NCCLS). The modified method was developed at the Center for Medical Mycology, University Hospitals of Cleveland, Cleveland, Ohio, based on the method described in Jessup, et al., “Antifungal Susceptibility Testing of Dermatophytes: Establishing a Medium for Inducing Conidial Growth and Evaluation of Susceptibility of Clinical Isolates,” Journal of Clinical Microbiology, 38, 341-344, published by the American Society for Microbiology (2000), the disclosures of which are incorporated herein by reference. Based on a multicenter study of the reproducibility of the modified method for testing dermatophytes, adoption of the modified method as an amendment to the NCCLS M38-A standard has been proposed. […]
Dermatophyte isolates are subcultured onto Potato Dextrose Agar (PDA) and incubated at a temperature of about 30° C. for a period of about 4 to about 5 days or until good conidiation is produced. […] The suspension is allowed to settle for about 5 to about 10 minutes and the conidia is counted using a hemocytometer. […]
MIC assay was determined using the broth dilution procedure described in Example 8 performed in microtiter wells with RPMI 1604 as the diluent. […]

[2] = system: T. mentagrophytes, (ATCC 24953); experiment: Agar diffusion plate assay, zone of inhibition (Example 9); format: cell-based, Trichophyton mentagrophytes; details: undiluted composition
Excerpt: For the agar diffusion assay, the standardized inoculum of conidia is applied to the surface of a Potato Dextrose Agar plate and allowed to dry. Wells are then cut into the agar and the test composition is put into the wells and allowed to diffuse and antifungal activity is evidenced by zones of growth inhibition (i.e., area remaining clear, lacking growth) on the surface of the plates measured in millimeters (mm) diameter.
The fungicidal activity of terbinafine hydrochloride against the dermatophytic fungi, T. mentagrophytes, (ATCC 24953), is illustrated in the modified NCCLS broth dilution assay described in Example 8, based on minimum inhibitory concentration (MIC) and minimum fungicidal concentration (MFC) as well as an agar diffusion plate assay measuring the zones of inhibition.
MIC assay was determined using the broth dilution procedure described in Example 8 performed in microtiter wells with RPMI 1604 as the diluent. Serial dilutions of each test composition were made in RPMI diluent, and then 100 μl of undiluted test composition and of each diluted composition was added to a respective microtiter well. Conidial suspension (100 μl) was then added to each well and the plates were incubated at an incubation temperature of about 35° C. for an incubation period of 4 days dermatophytes, and 48 hours for yeasts. […], undiluted test composition was added to wells cut into the agar and allowed to diffuse. The MIC endpoint was the lowest concentration that inhibited 80% of fungal growth as compared to the growth control. The MFC endpoint was the lowest concentration to produce 1-2 colonies. The zone of inhibition size was measured (diameter of area remaining clear, i.e., lacking growth).

[3] = system: T. mentagrophytes, (ATCC 24953); experiment: MFC assay by subculturing the microtiter wells from the MIC test; format: cell-based, Trichophyton mentagrophytes
Protocol: Dermatophyte isolates are subcultured onto Potato Dextrose Agar (PDA) and incubated at a temperature of about 30° C. for a period of about 4 to about 5 days or until good conidiation is produced. T rubrum isolates are subcultured onto cereal (oatmeal) agar instead of PDA in order to induce conidia production. A suspension of conidia in sterile saline is made by gently swabbing the colony surface with a sterile swab. The suspension is allowed to settle for about 5 to about 10 minutes and the conidia is counted using a hemocytometer. Working suspensions of conidia are prepared in 10 ml RPMI 1604 (Difco Laboratories) medium to a final concentration of 1 to 3×10^3 CFU/ml. Yeast controls are subcultured onto PDA and incubated at a temperature of about 35° C. for about 48 hours. Yeast inocula are prepared to a final concentration of 0.5 to 2.5×10^3 CFU/ml. For MIC assay, each drug concentration well and growth control well is inoculated with 100 microliters of cell suspension, and the final volume in each microtiter well is 200 microliters. The dermatophyte plates are incubated at a temperature of about 35° C. for 4 days (yeast controls for 48 hours). […]
MIC assay was determined using the broth dilution procedure described in Example 8 performed in microtiter wells with RPMI 1604 as the diluent. […] The zone of inhibition size was measured (diameter of area remaining clear, i.e., lacking growth).

[4] = Release/retention of terbinafine hydrochloride from treated human nail clippings in ethyl alcohol; format: in vitro ADME; details: FIG. 2
Protocol: The terbinafine-treated nail clippings were then separately recovered from each test solution and rinsed with 10 mL of ethyl alcohol to remove antifungal liquid from the surface cavity. The rinsed nail clippings from each test were then separately immersed in another 5 mL portion of anhydrous ethyl alcohol to assess the rate of terbinafine release from the nail structure, by determining the concentration of terbinafine hydrochloride released as a function of time using the HPLC technique described above.

[5] = In vitro diffusion of terbinafine across a nail membrane (human nail clippings); format: in vitro ADME; details: applied as a 10% solution in ethanol

CCCCCCCCCCCCOC(=O)C(C)N(C)C.Cl (stereo not drawn) [9(E), dodecyl-2-(N,N-dimethylamino) isopropionate hydrochloride]
efficacy as judged from MIC assays ([1]; in words): at most some weak efficacy | Zone size (mm) [2]: Zero

CN(C/C=C/C#CC(C)(C)C)Cc1cccc2ccccc12 [9(F), terbinafine hydrochloride]
Zone size (mm) ([2]; hydrochloride): 80 mm

CN(C/C=C/C#CC(C)(C)C)Cc1cccc2ccccc12 [9(G), terbinafine hydrochloride]
MFC ([3]; Trichophyton mentagrophytes, ATCC24953, lowest concentration to produce 1-2 colonies): 0.125 µg/mL | fungicidal efficacy as judged from MFC assays ([3]; in words): substantially equivalent | MIC ([1]; Trichophyton mentagrophytes, ATCC24953, 96 h, 80% growth inhibition, 35° C., 4 days): 0.03 µg/mL | Zone size (mm) ([2]; hydrochloride): 18 mm

CN(C/C=C/C#CC(C)(C)C)Cc1cccc2ccccc12 [terbinafine hydrochloride]
period for amount of terbinafine hydrochloride retained in the nail to reach equilibrium [4]: about 10 hours

CN(C/C=C/C#CC(C)(C)C)Cc1cccc2ccccc12 [terbinafine, (E)-N-(6,6-dimethyl-2-hepten-4-ynyl)-N-methyl-1-naphthalene methanamine]
period to reach a concentration above the minimum inhibition concentration (MIC) for fungi across nail membrane [5]: about one
